Test results published in ChEMBL document CHEMBL4190322, “Structure-based development of novel triazoles and related thiazolotriazoles as anticancer agents and Cdc25A/B phosphatase inhibitors. Synthesis, in vitro biological evaluation, molecular docking and in silico ADME-T studies” (Eur J Med Chem, 2017).
The source made the active and inactive calls. No cut-off for these calls is given here.

Legend:
Format in all cases: functional
SR = experiment: Growth inhibition of human SR cells at 10 uM after 48 hrs by SRB assay relative to control; conditions: read-out: GI
KM12 = experiment: Growth inhibition of human KM12 cells at 10 uM after 48 hrs by SRB assay relative to control
CAKI-1 = experiment: Growth inhibition of human Caki1 cells at 10 uM after 48 hrs by SRB assay relative to control
OVCAR-8 = experiment: Growth inhibition of human OVCAR8 cells at 10 uM after 48 hrs by SRB assay relative to control
NCI-H23 = experiment: Growth inhibition of human NCI-H23 cells at 10 uM after 48 hrs by SRB assay relative to control; conditions: NCI-H23, 48 h, read-out: GI
OVCAR-4 = experiment: Growth inhibition of human OVCAR4 cells at 10 uM after 48 hrs by SRB assay relative to control
CCRF-CEM = experiment: Growth inhibition of human CCRF-CEM cells at 10 uM after 48 hrs by SRB assay relative to control; conditions: read-out: GI
NCI-H322M = experiment: Growth inhibition of human NCI-H322M cells at 10 uM after 48 hrs by SRB assay relative to control
K562 = experiment: Growth inhibition of human K562 cells at 10 uM after 48 hrs by SRB assay relative to control; conditions: K562, 48 h, read-out: GI
RPMI-8226 = experiment: Growth inhibition of human RPMI8226 cells at 10 uM after 48 hrs by SRB assay relative to control
A498 = experiment: Growth inhibition of human A498 cells at 10 uM after 48 hrs by SRB assay relative to control
SK-MEL-5 = experiment: Growth inhibition of human SK-MEL-5 cells at 10 uM after 48 hrs by SRB assay relative to control; conditions: SK-MEL-5, 48 h, read-out: GI
Malme-3M = experiment: Growth inhibition of human MALME-3M cells at 10 uM after 48 hrs by SRB assay relative to control
RXF 393 = experiment: Growth inhibition of human RXF393 cells at 10 uM after 48 hrs by SRB assay relative to control
SF-268 = experiment: Growth inhibition of human SF268 cells at 10 uM after 48 hrs by SRB assay relative to control
SNB-19 = experiment: Growth inhibition of human SNB19 cells at 10 uM after 48 hrs by SRB assay relative to control
LOX IMVI = experiment: Growth inhibition of human LOXIMVI cells at 10 uM after 48 hrs by SRB assay relative to control; conditions: read-out: GI
786-0 = experiment: Growth inhibition of human 786-0 cells at 10 uM after 48 hrs by SRB assay relative to control
MCF7 = experiment: Growth inhibition of human MCF7 cells at 10 uM after 48 hrs by SRB assay relative to control
HL-60 = experiment: Growth inhibition of human HL60 cells at 10 uM after 48 hrs by SRB assay relative to control
U-251 = experiment: Growth inhibition of human U251 cells at 10 uM after 48 hrs by SRB assay relative to control; conditions: U-251, 48 h, read-out: GI
A549 = experiment: Growth inhibition of human A549 cells at 10 uM after 48 hrs by SRB assay relative to control
NCI-H226 = experiment: Growth inhibition of human NCI-H226 cells at 10 uM after 48 hrs by SRB assay relative to control
NCI/ADR-RES = experiment: Growth inhibition of human NCI/ADR-RES cells at 10 uM after 48 hrs by SRB assay relative to control; conditions: read-out: GI
MOLT-4 = experiment: Growth inhibition of human MOLT4 cells at 10 uM after 48 hrs by SRB assay relative to control; conditions: MOLT-4, 48 h, read-out: GI
SK-OV-3 = experiment: Growth inhibition of human SKOV3 cells at 10 uM after 48 hrs by SRB assay relative to control; conditions: SK-OV-3, 48 h, read-out: GI
SNB-75 = experiment: Growth inhibition of human SNB75 cells at 10 uM after 48 hrs by SRB assay relative to control
HOP-62 = experiment: Growth inhibition of human HOP62 cells at 10 uM after 48 hrs by SRB assay relative to control; conditions: HOP-62, 48 h, read-out: GI
UO-31 = experiment: Growth inhibition of human UO31 cells at 10 uM after 48 hrs by SRB assay relative to control; conditions: UO-31, 48 h, read-out: GI
HOP-92 = experiment: Growth inhibition of human HOP92 cells at 10 uM after 48 hrs by SRB assay relative to control; conditions: HOP-92, 48 h, read-out: GI
HCT-116 = experiment: Growth inhibition of human HCT116 cells at 10 uM after 48 hrs by SRB assay relative to control
HT-29 = experiment: Growth inhibition of human HT-29 cells at 10 uM after 48 hrs by SRB assay relative to control
UACC-62 = experiment: Growth inhibition of human UACC62 cells at 10 uM after 48 hrs by SRB assay relative to control; conditions: UACC-62, 48 h, read-out: GI
PC-3 = experiment: Growth inhibition of human PC3 cells at 10 uM after 48 hrs by SRB assay relative to control; conditions: PC-3, 48 h, read-out: GI
MDA-MB-468 = experiment: Growth inhibition of human MDA-MB-468 cells at 10 uM after 48 hrs by SRB assay relative to control
NCI-H522 = experiment: Growth inhibition of human NCI-H522 cells at 10 uM after 48 hrs by SRB assay relative to control; conditions: NCI-H522, 48 h, read-out: GI
OVCAR-3 = experiment: Growth inhibition of human OVCAR3 cells at 10 uM after 48 hrs by SRB assay relative to control
SK-MEL-2 = experiment: Growth inhibition of human SK-MEL-2 cells at 10 uM after 48 hrs by SRB assay relative to control; conditions: SK-MEL-2, 48 h, read-out: GI
UACC-257 = experiment: Growth inhibition of human UACC257 cells at 10 uM after 48 hrs by SRB assay relative to control
Hs-578T = experiment: Growth inhibition of human Hs 578T cells at 10 uM after 48 hrs by SRB assay relative to control; conditions: read-out: GI

Structure (SMILES) | inhibition of growth at 10 µM (SR) [%] | growth inhibition (GI) (OVCAR-8) | inhibition of growth at 10 µM (NCI-H23) [%] | inhibition of growth at 10 µM (CCRF-CEM) [%] | inhibition of growth at 10 µM (K562) [%] | inhibition of growth at 10 µM (SK-MEL-5) [%] | growth inhibition (GI) (RXF 393) | growth inhibition (GI) (SNB-19) | inhibition of growth at 10 µM (LOX IMVI) [%] | growth inhibition (GI) (786-0) | growth inhibition (GI) (HL-60) | inhibition of growth at 10 µM (U-251) [%] | inhibition of growth at 10 µM (NCI/ADR-RES) [%] | inhibition of growth at 10 µM (MOLT-4) [%] | inhibition of growth at 10 µM (SK-OV-3) [%] | inhibition of growth at 10 µM (HOP-62) [%] | inhibition of growth at 10 µM (UO-31) [%] | inhibition of growth at 10 µM (HOP-92) [%] | growth inhibition (GI) (HT-29) | inhibition of growth at 10 µM (UACC-62) [%] | further results
COc1ccc(Cc2nnc(SCC(=O)Nc3ccc(C)cc3)n2-c2ccccc2)cc1 | 17 | inactive | 5.6 | 8.16 | 9.31 | 1.4 | inactive | inactive | 2.2 | inactive | inactive | 1.62 | 6.11 | 14.9 | 7.38 | 6.8 | 11.4 | 8.7 | inactive | 2.9 | growth inhibition (GI) (KM12): inactive; growth inhibition (GI) (CAKI-1): inactive; growth inhibition (GI) (OVCAR-4): inactive; growth inhibition (GI) (NCI-H322M): inactive; growth inhibition (GI) (RPMI-8226): inactive; growth inhibition (GI) (A498): inactive; inhibition of growth at 10 µM (Malme-3M; read-out: GI): 1.56%; growth inhibition (GI) (SF-268): inactive; growth inhibition (GI) (MCF7): inactive; growth inhibition (GI) (A549): inactive; growth inhibition (GI) (NCI-H226): inactive; growth inhibition (GI) (SNB-75): inactive; growth inhibition (GI) (HCT-116): inactive; inhibition of growth at 10 µM (PC-3): 16.3%; growth inhibition (GI) (MDA-MB-468): inactive; inhibition of growth at 10 µM (NCI-H522): 19%; growth inhibition (GI) (OVCAR-3): inactive; inhibition of growth at 10 µM (SK-MEL-2): 17.3%; growth inhibition (GI) (UACC-257): inactive; inhibition of growth at 10 µM (Hs-578T): 1.15%
COc1ccc(Cc2nnc3sc(SCC(=O)c4ccc(Cl)cc4)nn23)cc1 | 13.2 | inactive | 10.7 | 12.2 | 10 | 2.05 | inactive | inactive | 9 | inactive | inactive | 8.78 | 5.12 | 7.83 | 11.2 | 7.5 | 22.3 | 32 | inactive | 1.72 | inhibition of growth at 10 µM (KM12; KM12, 48 h, read-out: GI): 5.4%; inhibition of growth at 10 µM (CAKI-1; CAKI-1, 48 h, read-out: GI): 17.5%; inhibition of growth at 10 µM (OVCAR-4; OVCAR-4, 48 h, read-out: GI): 2.26%; inhibition of growth at 10 µM (NCI-H322M; read-out: GI): 6.27%; inhibition of growth at 10 µM (RPMI-8226; RPMI-8226, 48 h, read-out: GI): 8.67%; inhibition of growth at 10 µM (A498; A498, 48 h, read-out: GI): 35.4%; growth inhibition (GI) (Malme-3M): inactive; inhibition of growth at 10 µM (SF-268; SF-268, 48 h, read-out: GI): 5%; inhibition of growth at 10 µM (MCF7; MCF7, 48 h, read-out: GI): 6.24%; inhibition of growth at 10 µM (A549; A549, 48 h, read-out: GI): 1.3%; inhibition of growth at 10 µM (NCI-H226; NCI-H226, 48 h, read-out: GI): 2%; inhibition of growth at 10 µM (SNB-75; SNB-75, 48 h, read-out: GI): 21.8%; inhibition of growth at 10 µM (HCT-116; HCT-116, 48 h, read-out: GI): 4%; inhibition of growth at 10 µM (PC-3): 25.8%; growth inhibition (GI) (MDA-MB-468): inactive; inhibition of growth at 10 µM (NCI-H522): 17.7%; inhibition of growth at 10 µM (OVCAR-3; OVCAR-3, 48 h, read-out: GI): 3.88%; inhibition of growth at 10 µM (SK-MEL-2): 10%; growth inhibition (GI) (UACC-257): inactive; inhibition of growth at 10 µM (Hs-578T): 2.07%
